The results in this text go back to patent publication EP4737445A1, “NOVEL SATURATED HETEROCYCLE-SUBSTITUTED HETEROARYL-CARBONOHYDRAZONOYL DICYANIDE COMPOUND AND USE THEREOF” (Korea Institute of Science and Technology, priority 2023, dated 2025).

Structures are written as SMILES. Where two headings read alike, the source gives them in different places.

The nature of data set [1]: Liver microsomal stability, rat. The following applies: 1 µM compound; 0.5 mg/mL microsomes; NADPH; 30 minutes at 37°C. It counts as in vitro ADME. Put shortly: (§1)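 Compound (1 µM) incubated with liver microsomes (0.5 mg/mL; human, dog, rat, mouse) in 0.1 M phosphate pH 7.4, 5 min preincubation at 37°C, then 30 min with NADPH-generating system. Acetonitrile quench; remaining parent quantified by LC-MS/MS.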
For orientation: Liver microsomes are vesicles of endoplasmic reticulum, rich in cytochrome P450 enzymes.

The target in data set [2] is T1, CYP2D6 (Homo sapiens, UniProt P10635).
T1 construct: human liver microsomes (0.25 mg/mL); from tissue; host or cells: human liver microsomes
T1 sequence (P10635 whole entry): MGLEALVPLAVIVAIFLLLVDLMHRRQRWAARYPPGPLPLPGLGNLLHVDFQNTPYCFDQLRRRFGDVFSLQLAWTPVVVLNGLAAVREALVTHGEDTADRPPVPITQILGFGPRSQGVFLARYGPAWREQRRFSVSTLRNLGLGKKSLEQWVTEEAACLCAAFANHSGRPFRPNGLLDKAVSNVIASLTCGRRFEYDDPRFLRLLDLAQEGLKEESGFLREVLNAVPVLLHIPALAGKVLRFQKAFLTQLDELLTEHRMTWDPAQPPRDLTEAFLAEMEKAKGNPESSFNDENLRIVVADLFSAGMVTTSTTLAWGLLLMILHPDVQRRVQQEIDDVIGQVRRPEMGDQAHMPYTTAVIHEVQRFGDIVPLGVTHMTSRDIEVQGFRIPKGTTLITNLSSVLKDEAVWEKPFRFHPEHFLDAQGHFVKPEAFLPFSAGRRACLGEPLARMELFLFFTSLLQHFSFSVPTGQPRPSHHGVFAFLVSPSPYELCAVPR
Nature of the data set: CYP isoenzyme activity inhibition in human liver microsomes, CYP2D6. It counts as in vitro ADME. Particulars: 10 µM compound; human liver microsomes 0.25 mg/mL; relative to control without compound.

Data set [3] addresses T2, CYP3A4 (Homo sapiens, UniProt P08684).
T2 construct: human liver microsomes (0.25 mg/mL); from tissue; host or cells: human liver microsomes
In words: CYP isoenzyme activity inhibition in human liver microsomes, CYP3A4. It is filed as in vitro ADME. The following applies: 10 µM compound; human liver microsomes 0.25 mg/mL; relative to control without compound. In outline:
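Human liver microsomes 0.25 mg/mL, pH 7.4 phosphate, with cocktail substrates phenacetin 50 µM (1A2), diclofenac 10 µM (2C9), S-mephenytoin 100 µM (2C19), midazolam 2.5 µM (3A4); compound at 10 µM. 5 min pre-incubation, then NADPH for 15 min at 37 °C; metabolites by LC-MS/MS MRM, reported as % activity of no-compound control.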

The nature of data set [4]: Liver microsomal stability, human. It is filed as in vitro ADME. Particulars: 1 µM compound; 0.5 mg/mL microsomes; NADPH; 30 minutes at 37°C. In outline:
as §1

The test system of data set [5] is Tau-BiFC cells. Nature of the data set: Cell viability (stained nuclei count) in Tau-BiFC cells. It counts as cell-based. The following applies: @10 µM; Tau-BiFC cell line; Forskolin-only group = 100%. In outline:
(§2)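 Tau-BiFC cells were co-treated with compound (1, 3, 10 µM for screening; 0.03–30 µM for IC50) and 30 µM Forskolin for 48 h. BiFC fluorescence was normalised to the Forskolin-only window for aggregation; viability came from Hoechst-stained nuclei counts relative to Forskolin-only (100%). IC50 was derived by nonlinear regression.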

Data set [6] has as its target T3, Tau (Homo sapiens, UniProt P10636).
T3 construct: BiFC fluorescent-protein fragments (two complementary halves on two tau copies); expressed in transfected cells
Nature of the data set: Tau aggregation inhibition in Tau-BiFC cell model (Forskolin-induced). It counts as cell-based. Put shortly: as §2

[7] abbreviates: read-out: Tau aggregation inhibitory effect IC50, Tau-BiFC cell line, Forskolin 30 µM, 48 hours, 0.03-30 µM.

T2 sequence (P08684 whole entry): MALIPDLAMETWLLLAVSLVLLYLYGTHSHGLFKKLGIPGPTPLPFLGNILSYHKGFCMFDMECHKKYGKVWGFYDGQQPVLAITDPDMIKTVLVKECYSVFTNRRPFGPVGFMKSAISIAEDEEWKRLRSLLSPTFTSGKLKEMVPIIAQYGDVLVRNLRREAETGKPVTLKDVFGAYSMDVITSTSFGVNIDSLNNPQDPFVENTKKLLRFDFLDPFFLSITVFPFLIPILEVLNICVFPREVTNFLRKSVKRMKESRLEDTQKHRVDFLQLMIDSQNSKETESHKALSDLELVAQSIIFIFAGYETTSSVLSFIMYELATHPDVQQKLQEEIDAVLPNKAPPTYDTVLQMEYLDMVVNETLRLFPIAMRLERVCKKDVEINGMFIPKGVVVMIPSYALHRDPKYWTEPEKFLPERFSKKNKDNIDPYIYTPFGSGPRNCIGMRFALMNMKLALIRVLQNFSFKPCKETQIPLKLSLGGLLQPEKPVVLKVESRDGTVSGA
T3 sequence (P10636 1-441 isoform P10636-8): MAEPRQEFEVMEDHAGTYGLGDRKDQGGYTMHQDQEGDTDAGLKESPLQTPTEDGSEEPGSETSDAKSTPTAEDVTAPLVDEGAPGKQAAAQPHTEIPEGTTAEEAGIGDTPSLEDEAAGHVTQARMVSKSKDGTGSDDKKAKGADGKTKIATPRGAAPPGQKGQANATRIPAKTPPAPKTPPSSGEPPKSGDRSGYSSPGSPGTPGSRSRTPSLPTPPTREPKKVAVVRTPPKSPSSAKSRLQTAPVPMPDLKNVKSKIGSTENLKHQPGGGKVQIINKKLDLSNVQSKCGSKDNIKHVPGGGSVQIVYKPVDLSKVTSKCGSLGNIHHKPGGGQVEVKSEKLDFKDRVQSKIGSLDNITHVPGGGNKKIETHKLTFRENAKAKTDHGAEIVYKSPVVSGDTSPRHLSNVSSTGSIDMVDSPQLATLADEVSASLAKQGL

A word on the IC50: it is the concentration needed to halve the response being measured. On to `CCn1c(N2CCOCC2)nc2ccc(NN=C(C#N)C#N)cc21` [Compound 32, (1-ethyl-2-morpholino-1H-benzo[d]imidazol-6-yl)carbonohydrazonoyl dicyanide], for which the “Rat microsomes (% remaining)” value in data set [1] turned out to be 81.7 % remaining. In addition, the “CYP2D6 (% activity)” value in data set [2] stood at 92.1 % activity. Further, the “CYP3A4 (% activity)” value in data set [3] is listed as 73 % activity. Moreover, the “Human microsomes (% remaining)” value in data set [4] is given as 95.5 % remaining. Moreover, in data set [5], the “Cell viability (% @10µM)” value is given as 98%. The same molecule registered an IC50 in data set [6] of 12 nM.

In the case of `CCn1c(N2CCOCC2)nc2cc(NN=C(C#N)C#N)ccc21` [Compound 33, (1-ethyl-2-morpholino-1H-benzo[d]imidazol-5-yl)carbonohydrazonoyl dicyanide], in data set [1], the “Rat microsomes (% remaining)” value is on record as 96.8 % remaining. Moreover, in data set [2], the “CYP2D6 (% activity)” value came to 97.9 % activity. In data set [3], the “CYP3A4 (% activity)” value is on record as 75.4 % activity. Moreover, in data set [4], the “Human microsomes (% remaining)” value worked out at 94.9 % remaining. The “Cell viability (% @10µM)” value in data set [5] came to 97%. Further, in data set [6], it took 4 nM to reach half-maximal inhibition (IC50).

In the case of `Cn1c(N2C3CCC2COC3)nc2ccc(NN=C(C#N)C#N)cc21` [Compound 34, (2-(3-oxa-8-azabicyclo[3.2.1]octan-8-yl)-1-methyl-1H-benzo[d]imidazol-6-yl)carbonohydrazonoyl dicyanide], the “Rat microsomes (% remaining)” value in data set [1] came to 97.1 % remaining. Also, the “CYP2D6 (% activity)” value in data set [2] came to 92.4 % activity. Moreover, the “CYP3A4 (% activity)” value in data set [3] was 84.3 % activity. Further, the “Human microsomes (% remaining)” value in data set [4] was 88.9 % remaining. Also, in data set [5], the “Cell viability (% @10µM)” value amounted to 100%. This molecule also gave an IC50 in data set [6] of 12 nM.

Consider `Cn1c(N2C3CCC2COC3)nc2cc(NN=C(C#N)C#N)ccc21` [Compound 35, (2-(3-oxa-8-azabicyclo[3.2.1]octan-8-yl)-1-methyl-1H-benzo[d]imidazol-5-yl)carbonohydrazonoyl dicyanide], for which the “Rat microsomes (% remaining)” value in data set [1] is 74.1 % remaining. Moreover, in data set [2], the “CYP2D6 (% activity)” value came to 94.9 % activity. Also, the “CYP3A4 (% activity)” value in data set [3] was 86.1 % activity. For the same molecule, the “Human microsomes (% remaining)” value in data set [4] was 94.3 % remaining. In data set [5], the “Cell viability (% @10µM)” value is on record as 100%. Besides, in data set [6], the IC50 was 12 nM.

For the molecule `N#CC(C#N)=NNc1ccc2nc(NC(=O)N3CCOCC3)sc2c1` [Compound 38, (2-(morpholine-4-carboxamido)benzo[d]thiazol-6-yl)carbonohydrazonoyl dicyanide], in data set [1], the “Rat microsomes (% remaining)” value worked out at 96.0 % remaining. Further, the “CYP2D6 (% activity)” value in data set [2] came to 95.7 % activity. The “CYP3A4 (% activity)” value in data set [3] was found to be 86.7 % activity. The “Human microsomes (% remaining)” value in data set [4] is 87.6 % remaining. The “Cell viability (% @10µM)” value in data set [5] is reported as 97%. Besides, the IC50 in data set [6] (setting [7]) came to 68 nM.

In the case of `CC1CN(C(=O)Nc2nc3ccc(NN=C(C#N)C#N)cc3s2)CC(C)O1` (stereo not drawn) [Compound 39, (2-(2,6-dimethylmorpholine-4-carboxamido)benzo[d]thiazol-6-yl)carbonohydrazonoyl dicyanide], the “Rat microsomes (% remaining)” value in data set [1] was 82.3 % remaining. Also, the “CYP2D6 (% activity)” value in data set [2] was 85.9 % activity. Besides, the “CYP3A4 (% activity)” value in data set [3] was determined as 56.5 % activity. For the same molecule, the “Human microsomes (% remaining)” value in data set [4] turned out to be 83.8 % remaining. Moreover, the “Cell viability (% @10µM)” value in data set [5] turned out to be 98%. This molecule also returned an IC50 in data set [6] of 44 nM.

Consider `N#CC(C#N)=NNc1ccc2nc(NC(=O)N3CC4CCC(C3)O4)sc2c1` [Compound 40, (2-(8-oxa-3-azabicyclo[3.2.1]octane-3-carboxamido)benzo[d]thiazol-6-yl)carbonohydrazonoyl dicyanide], for which the “Rat microsomes (% remaining)” value in data set [1] is 87.7 % remaining. In data set [2], the “CYP2D6 (% activity)” value was determined as 88.6 % activity. In data set [3], the “CYP3A4 (% activity)” value came to 75.5 % activity. Also, the “Human microsomes (% remaining)” value in data set [4] was found to be 94.2 % remaining. In addition, the “Cell viability (% @10µM)” value in data set [5] was determined as 98%. The IC50 in data set [6] (setting [7]) stood at 316 nM.

Consider `N#CC(C#N)=NNc1ccc2nc(N3CC[C@@H](F)C3)oc2c1` [Compound 41, (R)-(2-(3-fluoropyrrolidin-1-yl)benzo[d]oxazol-6-yl)carbonohydrazonoyl dicyanide], for which, in data set [1], the “Rat microsomes (% remaining)” value worked out at 19.0 % remaining. Besides, the “CYP2D6 (% activity)” value in data set [2] is given as 86.8 % activity. In data set [3], the “CYP3A4 (% activity)” value was 86.5 % activity. Besides, in data set [4], the “Human microsomes (% remaining)” value is given as 70.0 % remaining. Moreover, the “Cell viability (% @10µM)” value in data set [5] was 100%. Also, the IC50 in data set [6] (setting [7]) turned out to be 260 nM.
